Experimental data: PMC9530166, “Allosteric regulation of glycogen breakdown by the second messenger cyclic di-GMP” (Nature Communications, 2022)

Experiments:
[RsiG + WhiG] = target: [RsiG + WhiG]; parameters: method as in PMID 25171413, PMID 31810759; conditions: cited from earlier work
His6-Vnz25270 = assay: nanoDSF thermal shift assay, GlgX paralog Vnz25270; format: binding, Streptomyces venezuelae; conditions: 10 µM His6-Vnz25270, 1 mM c-di-GMP
Protocol: (§1) For label-free thermal shift assay experiments, 10 μM purified protein in 25 mM Tris pH 8, 150 mM NaCl, 2.5% (v/v) glycerol, and 5 mM MgCl2 was incubated without or with (1 mM) of nonlabeled c-di-GMP or c-di-AMP, respectively, at rt for 10 min. Reactions were subsequently analyzed in a Tycho NT.6 (NanoTemper Technologies) device with a 30 K/min thermal ramp and the internal fluorescence at 330 and 350 nm was recorded. Data analysis and calculation of derivatives was done using the internal evaluation features of the Tycho instrument.
(a) 15 µg of purified E. coli His6-GlgX
167 or His6-Vnz25270, respectively, were mixed with 0.5 µl of [32P]-c-di-GMP (Hartmann Analytic
168 GmbH, Braunschweig) in binding buffer (25 mM Tris pH 8.0, 150 mM NaCl, 2.5% (v/v) glycerol
169 and 5 mM MgCl2). 10 µL of the reactions were spotted on the same nitrocellulose membrane (Roth),
170 air dried for 10 min and analyzed by phosphorimaging. (b, c) 10 µM purified His6-Vnz25270 (b) or
171 His6-GlgXE.coli (c) in 25 mM Tris pH 8.0, 150 mM NaCl, 2.5% (v/v) glycerol and 5 mM MgCl2 were
172 incubated without or with (1 mM) c-di-GMP. Reactions were analyzed in a Tycho NT.6
173 (NanoTemper Technologies) device.
(1 picture or pasted object on this page, not shown here)

His6-GlgXD342A = assay: BCA reducing-end enzyme assay, GlgXD342A; format: biochemical, Streptomyces venezuelae; conditions: 50 µM c-di-GMP, 0.05% glycogen from rabbit, 1 µM enzyme
Protocol: Fig. 2 c-di-GMP stimulates glycogen breakdown activity of GlgX in vitro. a Bicinchoninic acid (BCA) in vitro enzyme assay. The purple copper bicinchoninate complex indicating GlgX-mediated generation of reducing ends in glycogen was quantified by photometric measurements at 562 nm. A562 values were converted into reducing ends [µM glucose equivalents] based on D-glucose as a standard. Reactions contained 0.05% (w/v) glycogen from rabbit, 1 µM GlgX and increasing concentrations of c-di-GMP (0–100 µM). Source data are provided as a Source data file. b BCA assay containing 0.05% of either glycogen from rabbit, pullulan, amylopectin from maize or amylose from potato as substrates. Where appropriate, 1 µM GlgX or 50 µM c-di-GMP were added to the reaction samples. Source data are provided as a Source data file. c BCA assay as in a with or without c-di-GMP (50 µM), 0.05% glycogen from rabbit (S) and 1 µM Vnz25270, GlgX, the active site mutants GlgXD342A, GlgXE378A, GlgXD342A+E378A, or the c-di-GMP-binding mutant variant GlgXDETR49-52 as indicated. […]
Hydrolysis of carbohydrates was assessed in vitro by measuring the accumulation of reducing sugar ends using the BCA assay[42] and D-glucose as a standard for calibration (Supplementary Fig. 11). […] 125 μl sample aliquots were transferred in duplicates to a 96 well plate and the absorbance at 562 nm was measured using a plate reader.

His6-GlgX (Vnz29170) = assay: nanoDSF label-free thermal shift assay, wild-type GlgX; format: binding, Streptomyces venezuelae; conditions: 10 µM GlgX, 1 mM ligand; without ligand 51.5 °C
Protocol: Fig. 1 GlgX binds c-di-GMP. a Quantification of c-di-GMP in S. venezuelae cell extracts using LC-MS/MS. Cells were harvested during late vegetative growth (8–10 h), transition to sporulation (12–16 h), and sporulation (18–20 h). Data are presented as the mean of biological replicates ±SD (n = 3). […] Source data are provided in the Source data file. c [^32P]-c-di-GMP binds to GlgX in DRaCALA assay indicated by dark spots in the center of the nitrocellulose membrane. For competition, excess (100 µM) of unlabeled c-di-GMP, c-di-AMP, or GTP was added to the reaction containing [^32P]-c-di-GMP and GlgX.
To determine if the interaction between Vnz29170 (herein called GlgX) and c-di-GMP is direct, we purified an N-terminally His6-tagged GlgX protein and performed nano differential scanning fluorimetry (nanoDSF) thermal shift assays. […]
as §1, with “Data analysis and calculation of derivatives was done using the internal evaluation features of the Tycho instrument.” left out

## Nc1nc2c(ncn2[C@@H]2O[C@@H]3CO[P@](=O)(O)O[C@H]4[C@@H](O)[C@H](n5cnc6c(=O)[nH]c(N)nc65)O[C@@H]4CO[P@](=O)(O)O[C@H]3[C@H]2O)c(=O)[nH]1 [c-di-GMP, bis-(3′−5′)-cyclic diguanosine monophosphate]
[RsiG + WhiG]
  Kd: 0.39 ± 0.05 µM
His6-Vnz25270
  interaction with c-di-GMP by nanoDSF: did not detect any interactions
His6-GlgXD342A
  stimulation of enzyme activity by c-di-GMP: could not be stimulated
His6-GlgX (Vnz29170)
  melting point of His6-GlgX in the presence of ligand: 55.8 °C
